Measurements published in patent publication US11332459B2 (TEIJIN PHARMA LIMITED, priority 2017, dated 2022).
Where a name gives a salt, the structure may show the parent alone.

What follows are compounds tested against T1, human TRPC6 (Homo sapiens, UniProt Q9Y210) (assay: TRPC6 calcium flux assay (FLIPR, OAG-stimulated calcium influx)). Settings: HEK293 cells stably transfected with human TRPC6, read-out: hTRPC6 Potency.
T1 construct: expressed in transfected cells
T1 sequence (Q9Y210 1-931): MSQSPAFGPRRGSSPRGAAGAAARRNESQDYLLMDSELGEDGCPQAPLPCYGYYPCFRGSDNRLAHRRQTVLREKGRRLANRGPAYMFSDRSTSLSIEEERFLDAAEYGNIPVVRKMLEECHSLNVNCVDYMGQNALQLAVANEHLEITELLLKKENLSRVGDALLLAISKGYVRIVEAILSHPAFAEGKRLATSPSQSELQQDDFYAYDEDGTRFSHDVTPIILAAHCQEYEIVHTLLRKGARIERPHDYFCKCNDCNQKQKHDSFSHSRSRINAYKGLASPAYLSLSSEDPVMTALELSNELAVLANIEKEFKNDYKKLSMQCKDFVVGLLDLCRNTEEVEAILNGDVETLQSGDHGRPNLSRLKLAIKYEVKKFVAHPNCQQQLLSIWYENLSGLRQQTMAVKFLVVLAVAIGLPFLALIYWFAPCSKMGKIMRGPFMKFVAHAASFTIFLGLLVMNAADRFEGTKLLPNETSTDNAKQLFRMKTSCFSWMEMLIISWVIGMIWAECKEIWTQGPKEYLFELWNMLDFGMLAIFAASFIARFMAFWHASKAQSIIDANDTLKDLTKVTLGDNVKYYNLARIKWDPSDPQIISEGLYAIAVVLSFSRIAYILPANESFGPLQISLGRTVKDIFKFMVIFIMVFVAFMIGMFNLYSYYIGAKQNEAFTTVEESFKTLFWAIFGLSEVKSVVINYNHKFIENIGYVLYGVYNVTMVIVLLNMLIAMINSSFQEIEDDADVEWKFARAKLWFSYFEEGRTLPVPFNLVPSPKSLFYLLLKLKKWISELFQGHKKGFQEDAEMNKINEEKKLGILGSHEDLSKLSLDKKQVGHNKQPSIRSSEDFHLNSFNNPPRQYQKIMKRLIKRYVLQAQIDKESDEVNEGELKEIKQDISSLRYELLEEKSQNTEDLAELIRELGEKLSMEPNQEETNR
Assay type: cell-based
Procedure, shortened: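 HEK293 cells stably expressing human TRPC6, loaded with calcium dye 90–120 min at RT, then given compound for 25 min before OAG (50 uM final, 0.5% DMSO) in HEPES buffer pH 7.2 with 2 mM CaCl2. Background-subtracted FLIPR peak over 180 s normalized to OAG vs buffer; IC50 from dose plot.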

SMILES | IC50
N#Cc1ccc(Cn2c(N3CCC(F)(F)[C@H](N)C3)nc3ccccc32)cc1 [Example 154, (R)-4-((2-(3-amino-4,4-difluoropiperidin-1-yl)-1H-benzo[d]imidazol-1-yl)methyl)benzonitrile] | 3.06 nM
N#CCCN(CC1CCOC1)C(=O)Cn1c(N2CC[C@@H](F)[C@H](N)C2)nc2cc(F)c(F)cc21 (stereo partly drawn) [Example 643, 2-(2-((3R,4R)-3-amino-4-fluoropiperidin-1-yl)-5,6-difluoro-1H-benzo[d]imidazol-1-yl)-N-(2-cyanoethyl)-N-((tetrahydrofuran-3-yl)methyl)acetamide] | 1820 nM
CCN(CCOC)C(=O)Cn1c(N2CC[C@@H](F)[C@H](N)C2)nc2ccc(F)cc21 [Example 671, 2-(2-((3R,4R)-3-amino-4-fluoropiperidin-1-yl)-6-fluoro-1H-benzo[d]imidazol-1-yl)-N-ethyl-N-(2-methoxyethyl)acetamide] | 1430 nM
CN(CC(F)(F)F)C(=O)Cn1c(N2CCC(F)(F)[C@H](N)C2)nc2cc(F)ccc21 [Example 482, (R)-2-(2-(3-amino-4,4-difluoropiperidin-1-yl)-5-fluoro-1H-benzo[d]imidazol-1-yl)-N-methyl-N-(2,2,2-trifluoroethyl)acetamide] | 2740 nM
C[C@@H](c1ccc(Cl)c(Cl)c1)n1c(N2CC[C@@H](F)[C@H](N)C2)nc2cc(F)c(F)cc21 [Example 333, (3R,4R)-1-(1-((1S)-1-(3,4-dichlorophenyl)ethyl)-5,6-difluoro-1H-benzimidazol-2-yl)-4-fluoro-3-piperidinamine] | 3250 nM
N#Cc1cc(F)cc2c1nc(N1CC[C@H](F)[C@H](N)C1)n2Cc1ncc(Cl)cn1 [Example 149, 2-((3R,4S)-3-amino-4-fluoropiperidin-1-yl)-1-((5-chloropyrimidin-2-yl)methyl)-6-fluoro-1H-benzo[d]imidazole-4-carbonitrile] | 1.09 nM
N#Cc1ccc2c(c1)nc(N1CC[C@H](F)[C@H](N)C1)n2CC(=O)N1CCC1 [Example 288, 2-((3R,4S)-3-amino-4-fluoro-1-piperidinyl)-1-(2-(1-azetidinyl)-2-oxoethyl)-1H-benzimidazole-5-carbonitrile] | > 3750 nM
N[C@H]1CCCN(c2nc3ccccc3n2Cc2ccc(-c3ncon3)cc2)C1 [Example 369, (S)-1-(1-(4-(1,2,4-oxadiazol-3-yl)benzyl)-1H-benzo[d]imidazol-2-yl)piperidin-3-amine] | 8.65 nM
N[C@@H]1CN(c2nc3ccc(F)cc3n2CC(=O)N(CC(F)(F)F)[C@H]2CCOC2)CC[C@H]1F [Example 667, 2-(2-((3R,4R)-3-amino-4-fluoropiperidin-1-yl)-6-fluoro-1H-benzo[d]imidazol-1-yl)-N-((S)-tetrahydrofuran-3-yl)-N-(2,2,2-trifluoroethyl)acetamide] | 745 nM
N#Cc1ccc(Cn2c(N3CC[C@@H](F)[C@H](N)C3)nc3ccccc32)nc1 [Example 38, 6-((2-((3R,4R)-3-amino-4-fluoropiperidin-1-yl)-1H-benzo[d]imidazol-1-yl)methyl)nicotinonitrile] | 0.72 nM
N[C@@H]1CN(c2nc3ccccc3n2Cc2ncc(Cl)cn2)CC[C@H]1F [Example 195, (3R,4R)-1-(1-((5-chloropyrimidin-2-yl)methyl)-1H-benzo[d]imidazol-2-yl)-4-fluoropiperidin-3-amine] | 0.664 nM
CC(C)(C)OC1CN(C(=O)Cn2c(N3CC[C@@H](F)[C@H](N)C3)nc3cc(F)c(F)cc32)C1 [Example 427, 2-(2-((3R,4R)-3-amino-4-fluoropiperidin-1-yl)-5,6-difluoro-1H-benzo[d]imidazol-1-yl)-1-(3-(tert-butoxy)azetidin-1-yl)ethan-1-one] | > 1750 nM
COc1cc(C#N)ccc1Cn1c(N2CCC[C@@H](N)C2)nc2ccccc21 [Example 396, (R)-4-((2-(3-aminopiperidin-1-yl)-1H-benzo[d]imidazol-1-yl)methyl)-3-methoxybenzonitrile] | 18200 nM
CN(CCC(F)(F)F)C(=O)Cn1c(N2CC[C@@H](F)[C@H](N)C2)nc2cc(F)c(F)cc21 [Example 622, -(2-((3R,4R)-3-amino-4-fluoropiperidin-1-yl)-5,6-difluoro-1H-benzo[d]imidazol-1-yl)-N-methyl-N-(3,3,3-trifluoropropyl)acetamide] | 78.9 nM
N#CC1CN(C(=O)Cn2c(N3CC[C@@H](F)[C@H](N)C3)nc3cc(F)c(F)cc32)C1 [Example 426, 1-(2-(2-((3R,4R)-3-amino-4-fluoropiperidin-1-yl)-5,6-difluoro-1H-benzo[d]imidazol-1-yl)acetyl)azetidine-3-carbonitrile] | 933 nM
N#Cc1ccc(Cn2c(N3CC[C@@H](F)[C@H](N)C3)nc3cc(Cl)c(C(F)(F)F)cc32)nc1 [Example 127, 6-((2-((3R,4R)-3-amino-4-fluoro-1-piperidinyl)-5-chloro-6-(trifluoromethyl)-1H-benzimidazol-1-yl)methyl)-3-pyridinecarbonitrile] | 0.492 nM
C[C@H](c1ccc(C#N)cn1)n1c(N2CC[C@@H](F)[C@H](N)C2)nc2ccc(C#N)cc21 [Example 223, 2-((3R,4R)-3-amino-4-fluoropiperidin-1-yl)-1-((R)-1-(5-cyanopyridin-2-yl)ethyl)-1H-benzo[d]imidazole-6-carbonitrile hydrochloride] | 51.5 nM
COc1cc(F)cc2nc(N3CC[C@@H](F)[C@H](N)C3)n(CC(=O)N3CCOCC3)c12 [Example 546, 2-(2-((3R,4R)-3-amino-4-fluoropiperidin-1-yl)-5-fluoro-7-methoxy-1H-benzo[d]imidazol-1-yl)-1-morpholinoethan-1-one] | > 3750 nM
N[C@@H]1CN(c2nc3ccc(F)cc3n2CC(=O)Nc2nccs2)CC[C@H]1F [Example 660, 2-(2-((3R,4R)-3-amino-4-fluoropiperidin-1-yl)-6-fluoro-1H-benzo[d]imidazol-1-yl)-N-(thiazol-2-yl)acetamide] | 5.04 nM
N#Cc1ccc(Cn2c(N3CCC[C@H](N)C3)nc3ccccc32)nc1 [Example 70, (S)-6-((2-(3-aminopiperidin-1-yl)-1H-benzo[d]imidazol-1-yl)methyl)nicotinonitrile] | 2.32 nM
N#Cc1ccc(Cn2c(N3C[C@@H]4CC[C@@H](N)[C@@H]4C3)nc3ccccc32)nc1 [Example 79, 6-((2-((3aS,4R,6aR)-4-aminohexahydrocyclopenta[c]pyrrol-2(1H)-yl)-1H-benzo[d]imidazol-1-yl)methyl)nicotinonitrile hydrochloride] | 5.09 nM
N#Cc1cc(Cl)ccc1Cn1c(N2CCC[C@@H](N)C2)nc2ccccc21 [Example 397, (R)-2-((2-(3-aminopiperidin-1-yl)-1H-benzo[d]imidazol-1-yl)methyl)-5-chlorobenzonitrile] | 1580 nM
N#Cc1ccc(Cn2c(N3CCC4(CNC4)C3)nc3ccccc32)nc1 [Example 97, 6-((2-(2,6-diazaspiro[3.4]octan-6-yl)-1H-benzo[d]imidazol-1-yl)methyl)nicotinonitrile] | > 3750 nM
C[C@H](c1ncc(Cl)cn1)n1c(N2CC[C@@H](F)[C@H](N)C2)nc2cc(F)c(F)cc21 [Example 498, (3R,4R)-1-(1-((R)-1-(5-chloropyrimidin-2-yl)ethyl)-5,6-difluoro-1H-benzo[d]imidazol-2-yl)-4-fluoropiperidin-3-amine] | 1.88 nM
CN(C(=O)Cn1c(N2CC[C@@H](F)[C@H](N)C2)nc2cc(F)c(F)cc21)C1CC1 [Example 602, 2-(2-((3R,4R)-3-amino-4-fluoropiperidin-1-yl)-5,6-difluoro-1H-benzo[d]imidazol-1-yl)-N-cyclopropyl-N-methylacetamide] | 5.75 nM
N#Cc1ccc(Cn2c(N3CC[C@H](F)[C@H](N)C3)nc3ccc(C(F)(F)F)cc32)nc1 [Example 106, 6-((2-((3R,4S)-3-amino-4-fluoro-1-piperidinyl)-6-(trifluoromethyl)-1H-benzimidazol-1-yl)methyl)-3-pyridinecarbonitrile] | 0.45 nM
CS(=O)(=O)c1ccc2c(c1)nc(N1CC[C@@H](F)[C@H](N)C1)n2Cc1ccc(Cl)cn1 [Example 30, (3R,4R)-1-(1-((5-chloropyridin-2-yl)methyl)-5-(methylsulfonyl)-1H-benzo[d]imidazol-2-yl)-4-fluoropiperidin-3-amine] | 1940 nM
N[C@@H]1CN(c2nc3cc(F)c(F)cc3n2CC(=O)N2CCC(O)CC2)CC[C@H]1F [Example 640, 2-(2-((3R,4R)-3-amino-4-fluoropiperidin-1-yl)-5,6-difluoro-1H-benzo[d]imidazol-1-yl)-1-(4-hydroxypiperidin-1-yl)ethanone] | 809 nM
N#Cc1ccc(Cn2c(N3CC[C@H](F)[C@H](N)C3)nc3c(Cl)cccc32)cc1 [Example 409] | 1.04 nM
